Test results from patent US20140357512A1, “HISTONE DEACETYLASE (HDAC) BIOMARKERS IN MULTIPLE MYELOMA” (priority 2013, published 2014).

Test system: human myeloma cell line MM.1S
Assay: SILAC acetylated-lysine peptide profiling, HDAC inhibitor vs DMSO (light/heavy ratio)
Format: cell-based
Description: An embodiment of the invention comprises utilizing the SILAC method in order to quantitate changes in protein expression between two or more populations of cells. The SILAC method is a technique based on mass spectrometry that detects differences in protein abundance among samples using non-radioactive isotopic labeling. The SILAC method is known in the art, and described in detail in Ong et al., “Stable Isotope Labeling by Amino Acids in Cell Culture, SILAC, as a Simple and Accurate Approach to Expression Proteomics”, Molecular & Cellular Proteomics, vol. 1, pp. 376-386 (2002), which is incorporated herein by reference in its entirety.
Briefly, the SILAC method involves growing two populations of cells in cell culture. The first population of cells is grown in growth media containing normal amino acids (“normal media”). The second population of cells is grown in media lacking a standard essential amino acid (such as lysine), but is then supplemented with a non-radioactive, isotopically labeled form of that essential amino acid (such as lysine labeled with ^13C atoms, rather than normal ^12C atoms), which is called “heavy media”. When the two populations of cells are each growing in the medium, they incorporate the amino acids into all of their proteins. The growth of cells maintained in the heavy media is no different from that in normal media. All peptides containing the heavy amino acids are heavier than their normal counterparts. The cells from each of the two populations of cells are lysed. The lysates from each of the two cell populations are then combined. The combined cell lysates are then analyzed by mass spectrometry. Pairs of chemically identical peptides of different stable isotope composition can be differentiated in a mass spectrometer due to their difference in mass. The ratio of peak intensities in the mass spectrum for such peptide pairs reflects the abundance ratio for the two proteins.
This example describes SILAC studies that were performed to compare the effects of three different HDAC inhibitors (Compound A, Compound B, and tubastatin A) to a control on a human multiple myeloma cell line. The HDAC inhibitors were also compared amongst themselves to determine differences in their effects.
A human myeloma cell line MM.1S was grown using either ^12C (light) or ^13C (heavy) lysine containing culture medium. The “heavy” cells were treated with DMSO as the control, and the “light” cells were treated with a single HDAC inhibitor at 37° C. for 6 hours. The heavy and light cells were lysed, and the lysates were mixed in 1:1 ratio and digested with the protease trypsin. The acetylated lysine containing peptides (due to the action of the HDAC inhibitor) in the digested peptide pool were captured by a non-specific anti-acetylated lysine antibody cocktail (the antibodies identify both light and heavy acetylated peptides), and subjected to mass spectrometry analysis in order to identify thousands of individual peptides.
Thousands of peptides were identified in pairs (^12C and ^13C) due to their known mass differences. The amino acid sequence and quantitative ratio (Light/Heavy) of a given peptide in two differentially treated cell lysates were then determined and annotated with their possible protein (gene) sources.
As stated above, three HDAC inhibitors (Compound A, Compound B, and Tubastatin A) were used. Thus, the SILAC method was performed three times, with a different HDAC inhibitor compared to a control each time. Accordingly, there are three pairs of quantitative data in the table below, i.e., Compound A:DMSO, Compound B:DMSO, and Tubastatin A:DMSO. A cut-off of 1.30 fold of change (increase or decrease) was then used to determine “changed” or “+” in the table, and any peptides with a fold of change less than 1.3 fold were determined to be “unchanged” or “0” in the table. Those peptides that were not identified were marked as “NA” in the table. […]

Q: With `O=C(CCCCCCNC(=O)c1cnc(N(c2ccccc2)c2ccccc2)nc1)NO` [Compound A, 2-(diphenylamino)-N-(7-(hydroxyamino)-7-oxoheptyl)pyrimidine-5-carboxamide] as the compound, how does the “light to heavy ratio (L/H ratio) of acetylated peptide […](ac)FLK (SEQ ID NO: 326)” value (Isoform 5 of Transcriptional regulator ATRX [812], ATRX, drug:DMSO) read?
A: 0.00 log 2

Q: And the “light to heavy ratio (L/H ratio), log 2 scale, acetylated peptide YNDPIYVK(ac)LEK (SEQ ID NO: 764)” value (Isoform A of AP-1 complex subunit beta-1 [335], gene AP1B1, drug:DMSO)?
A: 0.93

Q: What about the “light to heavy ratio (L/H ratio) of acetylated peptide K(ac)VLFTCFK (SEQ ID NO: 529)” value (Isoform Beta-2 of DNA topoisomerase 2-beta [749], gene TOP2B, inhibitor:DMSO) of the same compound?
A: −0.42 log 2

Q: And the “light to heavy ratio (L/H ratio) of acetylated peptide K(ac)SSETLR (SEQ ID NO: 601)” value (Isoform CNPI of 23-cyclic-nucleotide 3-phosphodiesterase [177], gene CNP, inhibitor:DMSO)?
A: 0.46 log 2

Q: What about the “light to heavy ratio (L/H ratio) of acetylated peptide MVAAAK(ac)YAR (SEQ ID NO: 324)” value (Isoform Heart of ATP synthase subunit gamma mitochondrial [55], ATP5C1, drug:DMSO) of the same compound?
A: 0.00 log 2

Q: What about the “light to heavy ratio (L/H ratio), log 2 scale, acetylated peptide VNK(ac)EVER (SEQ ID NO: 782)” value (Isoform Long of ES1 protein homolog mitochondrial [157], gene C21orf33, drug:DMSO) of the same compound?
A: 1.00

Q: What about the “light to heavy ratio (L/H ratio) of acetylated peptide EFHQAGK(ac)[…] (SEQ ID NO: 623)” value (Isoform Long of ES1 protein homolog mitochondrial [171], gene C21orf33, inhibitor:DMSO) of the same compound?
A: 0.48 log 2

Q: And the “light to heavy ratio (L/H ratio) of acetylated peptide […](ac)R (SEQ ID NO: 588)” value (Isoform Long of Spectrin beta chain brain 1 [497], gene SPTBN1, inhibitor:DMSO)?
A: 0.44 log 2

Q: What about the “light to heavy ratio (L/H ratio) of acetylated peptide NLHSK(ac)WLK (SEQ ID NO: 589)” value (Isoform Long of Spectrin beta chain brain 1 [1312], gene SPTBN1, inhibitor:DMSO) of the same compound?
A: 0.44 log 2

Q: And the “light to heavy ratio (L/H ratio) of acetylated peptide VPNDK(ac)YYGAQTVR (SEQ ID NO: 625)” value (Isoform Mitochondrial of Fumarate hydratase mitochondrial [66], gene FH, inhibitor:DMSO)?
A: 0.49 log 2

Q: What about the “light to heavy ratio (L/H ratio) of acetylated peptide MMVAGFK(ac)K (SEQ ID NO: 339)” value (Isoform Short of Heterogeneous nuclear ribonucleoprotein U [524], HNRNPU, drug:DMSO) of the same compound?
A: 0.00 log 2

Q: What about the “light to heavy ratio (L/H ratio) of acetylated peptide APQCLGK(ac)FIEIAAR (SEQ ID NO: 338)” value (Isoform Short of Heterogeneous nuclear ribonucleoprotein U [546], HNRNPU, drug:DMSO) of the same compound?
A: 0.00 log 2

Q: What about the “light to heavy ratio (L/H ratio) of acetylated peptide LLEQYK(ac)EESK (SEQ ID NO: 302)” value (Isoform Short of Heterogeneous nuclear ribonucleoprotein U [651], HNRNPU, drug:DMSO) of the same compound?
A: 0.89 log 2

Q: And the “light to heavy ratio (L/H ratio) of acetylated peptide, log 2 scale” value (K(ac)[…] (SEQ ID NO: 246), Endoplasmin [270], HSP90B1)?
A: −0.54

Q: And the “light to heavy ratio (L/H ratio), log 2 scale, acetylated peptide (ac)[…](ac)GAGK (SEQ ID NO: 801)” value (KRR1 small subunit processome component homolog [11], gene KRR1, drug:DMSO)?
A: 1.00

Q: What about the “light to heavy ratio (L/H ratio) of acetylated peptide, log 2 scale” value (KTPCGEGSK(ac)TWDR (SEQ ID NO: 245), 40S ribosomal protein S20 [75], SNORD54, RPS20) of the same compound?
A: −0.69

Q: What about the “light to heavy ratio (L/H ratio) of acetylated peptide IVADK(ac)DYSVTANSK (SEQ ID NO: 317)” value (L-lactate dehydrogenase B chain [82], LDHB, drug:DMSO) of the same compound?
A: 1.00 log 2

Q: And the “L/H ratio of acetylated peptide” value (LAK(ac)LSDGVAVLK (SEQ ID NO: 484), 60 kDa heat shock protein mitochondrial [396], HSPD1)?
A: 0.61 log 2

Q: And the “L/H ratio of acetylated peptide” value (LALQK(ac)QLTK (SEQ ID NO: 495), Isoform 2 of Zinc finger protein 385C [103], ZNF385C)?
A: −1.00 log 2

Q: What about the “L/H ratio of acetylated peptide IHLEIK(ac)QLNR (SEQ ID NO: 57)” value (LMAN1 [346], log 2 scale, drug vs DMSO) of the same compound?
A: 0.00

Q: What about the “L/H ratio of acetylated peptide” value (LMK(ac)YGDSLYR (SEQ ID NO: 499), Nucleolar GTP-binding protein 1 [118], GTPBP4) of the same compound?
A: −0.78 log 2

Q: What about the “L/H ratio of acetylated peptide LYK(ac)[…] (SEQ ID NO: 4)” value (LMNB1 [261], log 2 scale, drug vs DMSO) of the same compound?
A: 0.00

Q: What about the “L/H ratio of acetylated peptide […](ac)LENAR (SEQ ID NO: 58)” value (LMNB1 [271], log 2 scale, drug vs DMSO) of the same compound?
A: 0.00

Q: What about the “L/H ratio of acetylated peptide GFGYK(ac)GSCFHR (SEQ ID NO: 59)” value (LOC390956 [71], log 2 scale, drug vs DMSO) of the same compound?
A: 0.00

Q: What about the “L/H ratio of acetylated peptide” value (LTLDK(ac)LDVK (SEQ ID NO: 485), Phosphoglycerate kinase 1 [11], PGK1) of the same compound?
A: 0.65 log 2

Q: What about the “L/H ratio of acetylated peptide” value (LVDTGDK(ac)FR (SEQ ID NO: 478), Isoform Long of Spectrin beta chain brain 1 [1913], SPTBN1) of the same compound?
A: −0.46 log 2

Q: What about the “L/H ratio of acetylated peptide” value (LVSEK(ac)LASYQAAR (SEQ ID NO: 476), Isoform 2 of Myc proto-oncogene protein [163], MYC) of the same compound?
A: −0.82 log 2

Q: What about the “light to heavy ratio (L/H ratio) of acetylated peptide, log 2 scale” value (LYATMEK(ac)HK (SEQ ID NO: 251), Histone acetyltransferase p300 [1590], EP300) of the same compound?
A: −0.43

Q: What about the “light to heavy ratio (L/H ratio) of acetylated peptide AVLK(ac)[…] (SEQ ID NO: 262)” value (Laminin receptor-like protein LAMRL5 [89], SNORA6, RPSAP15, SNORA62, RPSA, drug:DMSO) of the same compound?
A: 0.41 log 2

Q: And the “light to heavy ratio (L/H ratio) of acetylated peptide IHDVLCK(ac)LVEK (SEQ ID NO: 613)” value (Leucine-rich PPR motif-containing protein mitochondrial [864], gene LRPPRC, inhibitor:DMSO)?
A: 0.47 log 2

Q: What about the “light to heavy ratio (L/H ratio) of acetylated peptide SYVSEK(ac)DVTSAK (SEQ ID NO: 628)” value (Leucine-rich PPR motif-containing protein mitochondrial [1332], gene LRPPRC, inhibitor:DMSO) of the same compound?
A: 0.49 log 2

Q: What about the “L/H ratio of acetylated peptide ICCQFDFK(ac)R (SEQ ID NO: 60)” value (MAN2A1 [373], log 2 scale, drug vs DMSO) of the same compound?
A: 0.00

Q: What about the “L/H ratio of acetylated peptide YLTNQK(ac)NSNSK(ac)NDR (SEQ ID NO: 17)” value (MEAF6 [69:74], log 2 scale, drug vs DMSO) of the same compound?
A: 1.00

Q: And the “L/H ratio of acetylated peptide TLVLSDK(ac)HSPQK(ac)K (SEQ ID NO: 5)” value (MLL3 [2809:2814], log 2 scale, drug vs DMSO)?
A: 0.00

Q: And the “light to heavy ratio (L/H ratio) of acetylated peptide VHLSQK(ac)YK (SEQ ID NO: 343)” value (Matrin-3 [473], MATR3, SNHG4, drug:DMSO)?
A: 0.00 log 2

Q: And the “light to heavy ratio (L/H ratio) of acetylated peptide FLNK(ac)LAEER (SEQ ID NO: 342)” value (Matrin-3 [836], MATR3, SNHG4, drug:DMSO)?
A: 0.00 log 2
